Assay results taken from patent publication US20120302566A1, “INDANYLOXYDIHYDROBENZOFURANYLACETIC ACIDS” (BOEHRINGER INGELHEIM INTERNATIONAL GMBH, priority 2010, published 2012).
pEC50: −log10 of the molar value.

Key:
human GPR40 receptor [1] = biological target: T1, human GPR40 receptor (Homo sapiens, UniProt O14842); experiment: Cytosolic calcium measurement using the FLIPR system; assay type: cell-based; details: FLIPR cytosolic Ca2+ peak height; 1321N1 cells stably expressing human GPR40; read-out: EC50 values on GPR40 determined as described in (A)
T1 sequence (O14842 whole entry): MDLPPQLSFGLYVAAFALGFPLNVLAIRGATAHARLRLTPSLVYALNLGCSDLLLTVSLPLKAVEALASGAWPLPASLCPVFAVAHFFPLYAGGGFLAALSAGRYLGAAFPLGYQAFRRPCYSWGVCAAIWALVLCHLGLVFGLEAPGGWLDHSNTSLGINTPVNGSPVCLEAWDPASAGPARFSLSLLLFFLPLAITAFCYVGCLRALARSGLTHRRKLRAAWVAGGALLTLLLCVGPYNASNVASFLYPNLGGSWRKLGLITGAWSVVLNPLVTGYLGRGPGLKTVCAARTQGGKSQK
Description: (A) Cytosolic calcium measurement using the FLIPR system—1321N1 cells stably expressing human GPR40 receptor (Euroscreen, Belgium) were seeded 24 h before the assay in black clear-bottom collagen-coated 384-well plates in culture medium containing 10% FCS, 1% Na-Pyruvate and 400 μg/ml G418. On the assay day, wells were washed twice with 100 μL Krebs Ringer Buffer (KRB) containing 15 mM sodium hydrogencarbonate and 30 mM Hepes leaving 20 μl rest volume per well. Prior to stimulation the cells were loaded with the Ca^2+-sensitive fluorescent dye from the Calcium4 Assay Kit™ according to the Manufacturer's description (MDS Analytical technologies, Ismaning, Germany) for 80 min at room temperature in the dark, in the presence of 4 mM probenicid. Changes in cytosolic Ca^2+ concentration upon compound addition were monitored using a FLIPR Tetra device (Fluorescence Imaging Plate Reader; MDS Analytical technologies). The peak height of the obtained fluorescence signal was then used to calculate the EC50 values using GraphPad Prism 5 (Graphpad Software Inc, USA) using a sigmoidal curve fitting procedure allowing for a variable hill slope.

human GPR40 receptor [2] = biological target: T1, human GPR40 receptor; experiment: IP1 accumulation measurements using the IPOne assay system; assay type: cell-based; details: IP1 accumulation (IPOne HTRF), 1 hour stimulation; 1321N1 cells stably expressing human GPR40; read-out: EC50 values on GPR40 determined as described in (B)
Summary of the method: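 1321N1 cells stably expressing human GPR40 were stimulated with compounds for 1 h at 37° in pH 7.4 HEPES buffer with 50 mM final LiCl. IP1 accumulation was then read by HTRF (IP1-d2/anti-IP1 Tb cryptate) after 1 h lysis at room temperature.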

| Structure (SMILES) | pEC50 (human GPR40 receptor [1]) | pEC50 (human GPR40 receptor [2]) |
| --- | --- | --- |
| COC1(c2cccc3c2CC[C@H]3Oc2ccc3c(c2)OC[C@H]3CC(=O)O)CCC1 [Example 18, {(S)-6-[(R)-4-(1-Methoxy-cyclobutyl)-indan-1-yloxy]-2,3-dihydro-benzofuran-3-yl}-acetic acid] | 7.68 | 6.79 |
| CC1(C)CCCC1c1cccc2c1CC[C@H]2Oc1ccc2c(c1)OCC2CC(=O)O (stereo partly drawn) [Example 16, {6-[(R)-4-(2,2-Dimethyl-cyclopentyl)-indan-1-yloxy]-2,3-dihydro-benzofuran-3-yl}-acetic acid] | 5.50 | 7.33 |
| O=C(O)C[C@H]1COc2cc(O[C@H]3CCc4c3cccc4C(F)(F)F)ccc21 (stereo in doubt) [3/4, [6-(4-Trifluoromethyl-indan-1-yloxy)-2,3-dihydro-benzofuran-3-yl]-acetic acid] | 6.73 | 6.30 |
| COc1ccc(-c2cccc3c2CC[C@H]3Oc2ccc3c(c2)OCC3CC(=O)O)cc1 (stereo partly drawn) [Example 10, {6-[(R)-4-(4-Methoxy-phenyl)-indan-1-yloxy]-2,3-dihydro-benzofuran-3-yl}-acetic acid] | 6.48 | 6.75 |
| O=C(O)C[C@H]1COc2cc(O[C@H]3CCc4c3cccc4C(F)(F)F)ccc21 (single isomer, unassigned) [Example 2, [6-(4-Trifluoromethyl-indan-1-yloxy)-2,3-dihydro-benzofuran-3-yl]-acetic acid] | 7.57 | 7.70 |
| O=C(O)CC1COc2cc(O[C@@H]3CCc4c(Br)cccc43)ccc21 (mixture of isomers) [Example 6, {6-[(R)-4-Bromo-indan-1-yloxy]-2,3-dihydro-benzofuran-3-yl}-acetic acid] | 7.31 | 7.21 |
| Cn1ccc(-c2cccc3c2CC[C@H]3Oc2ccc3c(c2)OCC3CC(=O)O)cc1=O (stereo partly drawn) [Example 9, {6-[(R)-4-(1-Methyl-2-oxo-1,2-dihydro-pyridin-4-yl)-indan-1-yloxy]-2,3-dihydro-benzofuran-3-yl}-acetic acid] | 5.49 | < 5.00 |
| O=C(O)CC1COc2cc(O[C@@H]3CCc4c(C5CCOCC5)cccc43)ccc21 (stereo partly drawn) [Example 12, {6-[(R)-4-(Tetrahydro-pyran-4-yl)-indan-1-yloxy]-2,3-dihydro-benzofuran-3-yl}-acetic acid] | 6.34 | 5.57 |
| COC(c1cccc2c1CCC2Oc1ccc2c(c1)OCC2CC(=O)O)C(F)F (stereo not shown) [Example 11, {6-[4-(2,2-Difluoro-1-methoxy-ethyl)-indan-1-yloxy]-2,3-dihydro-benzofuran-3-yl}-acetic acid] | 6.20 | 5.65 |
| O=C(O)CC1COc2cc(O[C@@H]3CCc4c(C5=CCOCC5)cccc43)ccc21 (stereo partly drawn) [Example 8, {6-[(R)-4-(3,6-Dihydro-2H-pyran-4-yl)-indan-1-yloxy]-2,3-dihydro-benzofuran-3-yl}-acetic acid] | 6.51 | 5.80 |
| O=C(O)CC1COc2cc(OC3CCc4c3cccc4C(F)(F)F)ccc21 (mixture of isomers) [Example 1, [6-(4-Trifluoromethyl-indan-1-yloxy)-2,3-dihydro-benzofuran-3-yl]-acetic acid] | 7.30 | 7.16 |
| Cn1cc(-c2cccc3c2CC[C@H]3Oc2ccc3c(c2)OCC3CC(=O)O)cn1 (stereo partly drawn) [Example 7, {6-[(R)-4-(1-Methyl-1H-pyrazol-4-yl)-indan-1-yloxy]-2,3-dihydro-benzofuran-3-yl}-acetic acid] | 6.15 | 5.70 |
| COC(c1cccc2c1CCC2Oc1ccc2c(c1)OCC2CC(=O)O)C(C)(C)C (stereo not shown) [Example 13, {6-[4-(1-Methoxy-2,2-dimethyl-propyl)-indan-1-yloxy]-2,3-dihydro-benzofuran-3-yl}-acetic acid] | 6.23 | 7.37 |
| CC1(C)CCC=C1c1cccc2c1CC[C@H]2Oc1ccc2c(c1)OCC2CC(=O)O (mixture of isomers) [Example 15, {6-[(R)-4-(5,5-Dimethyl-cyclopent-1-enyl)-indan-1-yloxy]-2,3-dihydro-benzofuran-3-yl}-acetic acid] | 5.42 | 7.52 |
| COC(c1cccc2c1CCC2Oc1ccc2c(c1)OC[C@H]2CC(=O)O)C1CCC1 (stereo partly drawn) [Example 14, {(S)-6-[4-(Cyclobutyl-methoxy-methyl)-indan-1-yloxy]-2,3-dihydro-benzofuran-3-yl}-acetic acid] | 6.44 | 6.90 |
| O=C(O)C[C@@H]1COc2cc(O[C@@H]3CCc4c(OC(F)F)cccc43)ccc21 [Example 17, {(S)-6-[(R)-4-Difluoromethoxy-indan-1-yloxy]-2,3-dihydro-benzofuran-3-yl}-acetic acid] | 6.95 | 6.86 |
| CC(C)(C)Cc1cccc2c1CC[C@H]2Oc1ccc2c(c1)OC[C@H]2CC(=O)O [Example 34, {(S)-6-[(R)-4-(2,2-Dimethyl-propyl)-indan-1-yloxy]-2,3-dihydro-benzofuran-3-yl}-acetic acid] |  | 7.89 |
| Cc1cc2c(cc1O[C@@H]1CCc3c1cccc3C(F)(F)F)OCC2CC(=O)O (mixture of isomers) [Example 107, {5-Methyl-6-[(R)-4-trifluoromethyl-indan-1-yloxy]-2,3-dihydro-benzofuran-3-yl}-acetic acid] |  | 5.22 |
| Cc1cccc2cccc(-c3cccc4c3CC[C@H]4Oc3ccc4c(c3)OC[C@H]4CC(=O)O)c12 [Example 92, {(S)-6-[(R)-4-(8-Methyl-naphthalen-1-yl)-indan-1-yloxy]-2,3-dihydro-benzofuran-3-yl}-acetic acid] |  | 8.15 |
| COc1cc(C)c(-c2cccc3c2CC[C@H]3Oc2ccc3c(c2)OC[C@H]3CC(=O)O)c(C)c1 [Example 59, {(S)-6-[(R)-4-(4-Methoxy-2,6-dimethyl-phenyl)-indan-1-yloxy]-2,3-dihydro-benzofuran-3-yl}-acetic acid] |  | 6.49 |
| O=C(O)C[C@@H]1COc2cc(O[C@@H]3CCc4c(C5=CCCCC56CCOCC6)cccc43)ccc21 [Example 56, {(S)-6-[(R)-4-(3-Oxa-spiro[5.5]undec-7-en-7-yl)-indan-1-yloxy]-2,3-dihydro-benzofuran-3-yl}-acetic acid] |  | 6.91 |
| O=C(O)C[C@H]1COc2cc(O[C@H]3CCc4c3cccc4C(F)(F)F)ccc21 (single isomer, unassigned) [Example 5, [6-(4-Trifluoromethyl-indan-1-yloxy)-2,3-dihydro-benzofuran-3-yl]-acetic acid] | 5.64 | 5.05 |
| O=C(O)C[C@@H]1COc2cc(O[C@@H]3CCc4c(C5=CCCC56CCOCC6)cccc43)ccc21 [Example 47, {(S)-6-[(R)-4-(8-Oxa-spiro[4.5]dec-1-en-1-yl)-indan-1-yloxy]-2,3-dihydro-benzofuran-3-yl}-acetic acid] |  | 7.15 |
